Test: gradient 5% acetonitrile 3 min, to 50% in 2 min, to 85% in 15 min, held 3 min, 100 µL/min
Conditions: column: Zorbax Extend-C18 2.1 x 50 mm; eluents: water / acetonitrile, 0.1% formic acid
Procedure, shortened: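 Standards, all pure, were combined into mixtures of ~100 molecules and run at 100 μL/min on a Zorbax Extend-C18 column (2.1 × 50 mm, 1.8 μm) with water and acetonitrile, each containing 0.1% formic acid. A coupled quadrupole time-of-flight mass spectrometer operated in positive and negative ionization mode. Retention time values come from computationally picked adduct peaks, each inspected manually.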

Row | RP-LC retention time [s] | SMILES
1 | 726 | CCOC(=O)N1CCC2(CC1)N=C(c1ccc(OCC)cc1)CC(c1cc(Cl)ccc1O)N2 (configuration not stated)
2 | 634 | CC(Oc1ccc(-c2cnc3ccccc3n2)cc1)C(=O)NCCN(C)C (configuration not stated)
3 | 748 | COc1ccc(CC(=O)Nc2ccc3c(c2)Sc2ncccc2C(=O)N3C)cc1
4 | 650 | COCCCNC(=O)Cn1c(=O)n(-c2ccccc2)c2ncccc21
5 | 704 | CCNC(=O)C1CCCN(c2nc3ncn(CC(=O)Nc4ccc(Cl)cc4)c(=O)c3s2)C1 (configuration not stated)
6 | 982 | COc1ccc(-n2ccc(=O)c(-c3nc(-c4ccc(OC(C)C)cc4)no3)n2)cc1
7 | 584 | Cc1ccc(N2CCC(N)C2=O)cc1C (configuration not stated)
8 | 622 | CCOc1cc(=O)c(C(N)=O)nn1-c1ccc(F)cc1
9 | 603 | Cc1cc(=O)n(CC(=O)NCCn2nc(-c3ccc(F)cc3)ccc2=O)cn1
10 | 583 | CCc1nc2cccnc2n1CCN1CCN(C(=O)Nc2ccccc2Cl)CC1
11 | 659 | COc1ccc(CNC(=O)CN2C(=O)NC3(CCCCC3)C2=O)cc1OC
12 | 767 | CCC(=O)Nc1cc2c(cc1S(=O)(=O)c1ccc(C)cc1)n(C)c(=O)n2C
13 | 662 | O=C1CSc2ccc(S(=O)(=O)N3CCC(C(=O)NC4CC4)CC3)cc2N1
14 | 577 | COC(=O)N1CCN(Cc2cccc(NC(=O)Nc3ccc(C)nc3)c2F)CC1
15 | 692 | CCn1cc(C(=O)NC2CCN(c3ccc(=O)n(CCOc4ccccc4)n3)C2)cn1 (configuration not stated)
16 | 638 | Cc1nc(C)c(C(=O)N2CCCCCNC(=O)[C@@H]3CCC[C@@H]32)s1
17 | 734 | CC1CCCN(Cc2nc(-c3ccc(N(C)Cc4ccccc4)nc3)no2)C1 (configuration not stated)
18 | 844 | O=C(CSc1ncnc2ccccc12)N1CCCc2ccccc21
19 | 818 | CC(C)NC(=O)c1ccc(OCC2CCCN(C(=O)c3cccs3)C2)cc1 (configuration not stated)
20 | 612 | CN(C)c1ccc(CNC(=O)Cn2nc(C(=O)N3CCCC3)c3ccccc32)cc1
21 | 616 | CCn1ccc(C(=O)Nc2ccc3ncnc(N4CCCC4)c3c2)n1
22 | 763 | CC(=O)N1CCc2cc(N3CC(C(=O)NCc4ccccc4F)CC3=O)ccc21 (configuration not stated)
23 | 1110 | CCOC(=O)O[C@]1(C(=O)OCCl)CCC2[C@@H]3CCC4=CC(=O)C=C[C@]4(C)C3[C@@H](O)C[C@@]21C (some centres not stated)

Row | RP-LC retention time [s] | SMILES
24 | 853 | CNC(=O)N1CCCC(c2cccc(C(=O)NCc3ccc(C(F)(F)F)cc3)c2)C1 (configuration not stated)
25 | 834 | CCn1cc(C(=O)Nc2ccccc2)c(S(=O)(=O)N2CCSCC2)n1
26 | 763 | CC(C)c1cc(=O)n2c(n1)SCC2CC(=O)Nc1cccc(F)c1 (configuration not stated)
27 | 914 | Cc1sc(NC(=O)c2ccccc2Cl)nc1-c1ccc2c(c1)NC(=O)C(C)O2 (configuration not stated)
28 | 681 | O=C(c1ccsc1)N1CCCCC1c1nncn1CC1CC1 (configuration not stated)
29 | 808 | Cc1cc2nn(CC(=O)NCC3CCCO3)c(=O)n2c(Nc2ccccc2C)n1 (configuration not stated)
30 | 794 | Cc1ccc(C)c(NS(=O)(=O)c2cc3n(c2)CCN(C(C)C)C3=O)c1
31 | 796 | CC(C)C(=O)Nc1ccc(-n2cnc(C(=O)NCc3ccc(Cl)cc3)c2)nc1
32 | 576 | CC(C)NC(=O)N(C1CCOCC1)C1CN(C(=O)c2ccnn2C)C1
33 | 912 | CC1CCCCN1Cc1nc(-c2ccc(N(C)Cc3ccccc3)nc2)no1 (configuration not stated)
34 | 726 | Cc1cc(=O)n2nc(N3CCCC(C(=O)N4CCC(Cc5ccccc5)CC4)C3)sc2n1 (configuration not stated)
35 | 692 | CC(C)CN1CCN(S(=O)(=O)c2ccc(-c3nnc(C4CCCC4)o3)o2)CC1
36 | 887 | COc1ccc(Cl)cc1NC(=O)c1cccn1-c1cccnc1
37 | 1000 | COc1ccc(-c2noc(Cc3nnc(-c4cccc(F)c4)o3)n2)cc1F
38 | 581 | COCCN1C(=O)Cc2ccccc2C1C(=O)N1CCN(c2ccccn2)CC1 (configuration not stated)
39 | 644 | CC1CCCN(C(=O)C(=O)NCc2n[nH]c(=O)c3ccccc23)C1 (configuration not stated)
40 | 870 | Cc1ccccc1N(C)C(=O)C1CCCN(c2ncnc3c2nc2n3CCCCC2)C1 (configuration not stated)
41 | 733 | Cc1ccc2c(=O)c(C(=O)N3CCCC3)cn(CC(=O)Nc3ccc(C)c(C)c3)c2n1
42 | 577 | Cc1nccn1CC(=O)N1CCCC(OCc2nc(C3CC3)no2)C1 (configuration not stated)
43 | 925 | Cn1nc(-c2nc(C3CC3)no2)c2c1CCN(S(=O)(=O)c1ccc(F)cc1)C2
44 | 622 | O=C(Cn1cnc2ccccc2c1=O)NCCn1nc(-c2cccs2)ccc1=O
45 | 668 | COc1ccc(NC(=O)NCC2CCOCC2)cc1F
46 | 716 | Cc1csc(-c2ccc(N3CCN(C(=O)c4ccoc4)CC3)nc2)n1

Row | RP-LC retention time [s] | SMILES
47 | 735 | Cc1ccc(-c2nc(NCC3CCCO3)ncc2C(=O)O)cc1 (configuration not stated)
48 | 596 | O=C(Cc1nc(-c2ccccn2)n[nH]1)Nc1ccccc1
49 | 1060 | CCc1cc(C(=O)Nc2ccccc2F)nc2ccnn12
50 | 726 | Cc1noc([C@@H]2CC(F)(F)CN2C(=O)c2cc(C3CC3)[nH]n2)n1
51 | 794 | Cn1cc(CN2CCC(C(=O)N3CCN(c4ccccc4F)CC3)CC2)c2cc(Cl)ccc21
52 | 1120 | O=C(Nc1cccn2nc(C3CCC3)nc12)c1ccc(C(F)(F)F)s1
53 | 669 | CCOc1cc(-c2ccccc2)nc2ccc(NS(=O)(=O)c3ccc(NC(C)=O)cc3)cc12
54 | 790 | O=C(C1CCCCC1)N1CCN(c2ccc(=O)n(-c3ccccc3)n2)CC1
55 | 588 | CCN1CCC(Nc2ccnc3cc(Cl)ccc23)CC1
56 | 1270 | CCOc1ccc(C2Cn3nnc(-c4nc(-c5cccc(C)c5)no4)c3CO2)cc1 (configuration not stated)
57 | 670 | COCCOC1CCOC2(CCN(C(=O)c3ccsc3)CC2)C1 (configuration not stated)
58 | 1130 | O=S(=O)(c1cc(F)ccc1F)N1CCCCC1c1noc(COCC2CC2)n1 (configuration not stated)
59 | 973 | O=C(c1nnn(-c2ccccc2Cl)c1-c1ccncc1)N1CCN(c2ccccn2)CC1
60 | 891 | Cc1cn2c(S(=O)(=O)N3CCC4(CC3)OCCO4)c(C(C)C)nc2s1
61 | 1010 | CCNC(=O)c1c(C)c(-c2ccccc2)n(C)c1C
62 | 611 | Cc1cc(C)c2c(N3CCOCC3)nc(C(=O)N(C)Cc3ccco3)nc2n1
63 | 643 | Cc1nc2ccccn2c(=O)c1CCN1CCC(C(=O)c2ccc(F)cc2)CC1
64 | 867 | COc1ccc(OCc2nn3c(-c4ccc(OC)c(OC)c4)nnc3s2)cc1
65 | 570 | Cn1c(=O)c(N2CCN(C(=O)c3cc(F)ccc3Cl)CC2)nc2ccncc21
66 | 824 | CC(C)c1cc(C2CCCN2C(=O)c2ccc3c(c2)OCO3)on1 (configuration not stated)
67 | 620 | Cc1nc(C(=O)N2CCSCC2)c(C)o1
68 | 947 | O=C(Cc1cccc(F)c1)Nc1cc(-c2cccs2)no1
69 | 835 | c1csc(-c2[nH]ncc2CN2CCN(c3cnn4cnnc4c3)CC2)c1

Row | RP-LC retention time [s] | SMILES
70 | 608 | Cc1cnc(C2CN(C3CCCCCC3)C2)n1Cc1cccnc1
71 | 718 | COC(=O)Cn1c(C2CC(=O)N(c3cccc(OC)c3)C2)nc2ccccc21 (configuration not stated)
72 | 675 | CCc1ccc(NC(=O)C2CCN(c3cncnc3N3CCOCC3)CC2)cc1
73 | 628 | O=C(Cn1cnc2nc(N3CCCC(C(=O)NC4CC4)C3)sc2c1=O)NC1CCCC1 (configuration not stated)
74 | 598 | CN(C)CC1(O)CCC2(CCN(C(=O)CC3CCCC3)CC2)CC1
75 | 806 | O=c1n(Cc2ccc(F)cc2)nc2c(S(=O)(=O)N3CCCC3)cccn12
76 | 704 | Cc1ccc(N2CC(NC(=O)NCc3cccs3)CC2=O)cc1C (configuration not stated)
77 | 793 | O=C(Nc1cnc(N2CCOCC2)nc1)c1cccc(Cl)c1
78 | 766 | O=C(CSc1nnc2c3sc(N4CCCC4)nc3ncn12)Nc1ccc2c(c1)OCO2
79 | 811 | COc1cc(NC(=O)N2CCCC(C)(C(=O)NCc3ccc(C)cc3)C2)cc(OC)c1OC (configuration not stated)
80 | 602 | COCCNc1c(-c2cccc(C)c2)nc2sc(C(=O)NC3CC3)c(C)n12
81 | 616 | COc1ccccc1-c1noc(CCc2nnc3ccc(N4CCN(Cc5ccccc5)CC4)nn23)n1
82 | 735 | COc1cncc(C(=O)Nc2cc(F)ccc2F)c1
83 | 675 | CCN1CCN(S(=O)(=O)c2cc(-c3nc(C)cs3)n(CC(=O)N3CCCCC3)c2)CC1
84 | 593 | CSc1nc(N2CCCC2)c2cnn(CCNC(=O)c3ccc(=O)[nH]c3)c2n1
85 | 734 | NC(=O)c1cnn(-c2cccc(F)c2)c1-n1cccc1
86 | 694 | CCCN(C)c1nccnc1OC1CCN(C(=O)CC)C1 (configuration not stated)
87 | 866 | O=C(CN1CCN(Cc2ccc(F)cc2)C1=O)NCc1ccccc1C(F)(F)F
88 | 910 | O=C(CC1COc2ccccc2NC1=O)NCCc1ccc(Cl)cc1 (configuration not stated)
89 | 691 | CN(CC1CCOCC1)C(=O)Cc1ccsc1
90 | 737 | Cc1ccc(CN2C(=O)COC[C@H]2C(=O)NCc2ccco2)cc1
91 | 1050 | CC(=O)N1CCCSc2ccc(S(=O)(=O)N3CCN(c4cccc(Cl)c4)CC3)cc21

Row | SMILES | RP-LC retention time [s]
92 | CCOc1ccccc1NC(=O)N1CCC2(C1)C(=O)N(C)c1ccc(OC)cc12 (configuration not stated) | 882

Reference: the METLIN SMRT retention time set (Domingo-Almenara et al. 2019)
